PubChem BioAssay AID1963964 (Molecular Pharmacology Branch, DTP, NCI, 2024)

Test system: 997726-040-R-J2-PDC tumor spheroids, viability
Assay: Anticancer human tumor 997726-040-R-J2-PDC patient-derived squamous cell lung carcinoma cell line growth inhibition [PI3K]
Details: spheroids with HUVEC and MSC; for IC50: curve of first compound; for viability, T/C: stronger effect = lower value
Outline: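 We assembled tumor spheroids that included a stromal compartment of HUVEC and MSCs, then exposed them to targeted agents alone and together with PI3K pathway inhibitors. Concentration series descended by half-log from clinically achievable Cmax levels. Viability served as the endpoint.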
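Note: spheroids exposed to compounds for seven days before readout.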

## C#Cc1c(F)ccc2cc(O)cc(-c3ncc4c(N5CC6CCC(C5)N6)nc(OCC56CCCN5CC(F)C6)nc4c3F)c12 (configuration not stated) + CC(Nc1ncnc2nc[nH]c12)c1cc2cccc(Cl)c2c(=O)n1-c1ccccc1
Second compound 0.0316 µM
  IC50: > 10 µM
Second compound 0.1 µM
  IC50: > 10 µM
Second compound 0.316 µM
  IC50: > 10 µM
Second compound 1 µM
  IC50: > 10 µM
Second compound 3.16 µM
  IC50: > 10 µM
Second compound 10 µM
  IC50: < 0.0316 µM
Second compound 0.0316 µM, first compound 0.0316 µM
  viability, T/C: 90.6%
Second compound 0.0316 µM, first compound 0.1 µM
  viability, T/C: 99.3%
Second compound 0.0316 µM, first compound 0.316 µM
  viability, T/C: 101%
Second compound 0.0316 µM, first compound 1 µM
  viability, T/C: 85.7%
Second compound 0.0316 µM, first compound 3.16 µM
  viability, T/C: 88.1%
Second compound 0.0316 µM, first compound 10 µM
  viability, T/C: 96%
Second compound 0.1 µM, first compound 0.0316 µM
  viability, T/C: 101%
Second compound 0.1 µM, first compound 0.1 µM
  viability, T/C: 96.5%
Second compound 0.1 µM, first compound 0.316 µM
  viability, T/C: 83.3%
Second compound 0.1 µM, first compound 1 µM
  viability, T/C: 97.6%
Second compound 0.1 µM, first compound 3.16 µM
  viability, T/C: 82.1%
Second compound 0.1 µM, first compound 10 µM
  viability, T/C: 73.3%
Second compound 0.316 µM, first compound 0.0316 µM
  viability, T/C: 97.1%
Second compound 0.316 µM, first compound 0.1 µM
  viability, T/C: 103%
Second compound 0.316 µM, first compound 0.316 µM
  viability, T/C: 98%
Second compound 0.316 µM, first compound 1 µM
  viability, T/C: 94%
Second compound 0.316 µM, first compound 3.16 µM
  viability, T/C: 95.7%
Second compound 0.316 µM, first compound 10 µM
  viability, T/C: 61.5%
Second compound 1 µM, first compound 0.0316 µM
  viability, T/C: 87.3%
Second compound 1 µM, first compound 0.1 µM
  viability, T/C: 93.8%
Second compound 1 µM, first compound 0.316 µM
  viability, T/C: 82.7%
Second compound 1 µM, first compound 1 µM
  viability, T/C: 84.6%
Second compound 1 µM, first compound 3.16 µM
  viability, T/C: 79.9%
Second compound 1 µM, first compound 10 µM
  viability, T/C: 63.5%
Second compound 3.16 µM, first compound 0.0316 µM
  viability, T/C: 71.6%
Second compound 3.16 µM, first compound 0.1 µM
  viability, T/C: 68.3%
Second compound 3.16 µM, first compound 0.316 µM
  viability, T/C: 61.4%
Second compound 3.16 µM, first compound 1 µM
  viability, T/C: 72.3%
Second compound 3.16 µM, first compound 3.16 µM
  viability, T/C: 65.3%
Second compound 3.16 µM, first compound 10 µM
  viability, T/C: 57.7%
Second compound 10 µM, first compound 0.0316 µM
  viability, T/C: 49.1%
Second compound 10 µM, first compound 0.1 µM
  viability, T/C: 50.1%
Second compound 10 µM, first compound 0.316 µM
  viability, T/C: 45.3%
Second compound 10 µM, first compound 1 µM
  viability, T/C: 45.5%
Second compound 10 µM, first compound 3.16 µM
  viability, T/C: 39.1%
Second compound 10 µM, first compound 10 µM
  viability, T/C: 35.1%
